Assay results as given in article PMC9785542, “Discovery of 1-Benzhydryl-Piperazine-Based HDAC Inhibitors with Anti-Breast Cancer Activity: Synthesis, Molecular Modeling, In Vitro and In Vivo Biological Evaluation” (Pharmaceutics, 2022).

How the values were obtained:
[1] = tested on: zebrafish (Danio rerio) embryos; experiment: Acute and developmental toxicity in zebrafish embryos; format: in vivo; conditions: 50 µM
Experimental: (§1) Embryos of wild type (AB) and transgenic Tg(fli1:EGFP) and Tg(-2.8fabp10a:EGFP) zebrafish (Danio rerio) lines were kindly provided by Dr. Ana Cvejić (Wellcome Trust Sanger Institute, Cambridge, UK) and raised to adult stage in a temperature- and light-controlled zebrafish facility at 28 °C and standard 14–10 h light–dark photoperiod. Adult fish were regularly fed with commercial dry food (SDS300 granular food; Special Diet Services, Essex, UK; and TetraMinTM flakes, Tetra, Melle, Germany) twice per day and Artemia nauplii daily. All experiments involving zebrafish were performed in compliance with the European directive 2010/63/EU and the ethical guidelines of the Guide for Care and Use of Laboratory Animals of the Institute of Molecular Genetics and Genetic Engineering, University of Belgrade.
(§2) Toxicity evaluation of the tested compounds in the zebrafish model was carried out following the general rules of the OECD Guidelines for the Testing of Chemicals (OECD, 2013, Test No. 236), and procedures described in the literature. Briefly, wild type (AB) zebrafish produced by pair-wise mating were collected, washed of debris, and distributed into 24-well plates containing 10 embryos/well and 1 mL of E3 medium (5 mM NaCl, 0.17 mM KCl, 0.33 mM CaCl2, and 0.33 mM MgSO4·7H2O in distilled water), and raised at 28 °C.
(§3) To assess acute (lethality), inner organ, and developmental (teratogenicity) toxicity, the embryos at the 6 h post-fertilization (hpf) stage were treated with six different concentrations of each tested compound (100, 50, 25, 12.5, 6.25, and 3.13 µM). Stock solutions of test substances were made in DMSO. Embryo water and DMSO (0.25%) were used as negative and […] controls, respectively. The experiment was performed three times using 20 embryos per concentration. Treated embryos were inspected for 22 toxicological parameters (Table S2) every day by 120 hpf upon a stereomicroscope (Carl Zeiss™ Stemi 508 doc Stereomicroscope, Jena, Germany). Dead embryos were discarded every 24 h. At 120 hpf, embryos were anesthetized by addition of 0.1% (w/v) tricaine solution (Sigma-Aldrich, St. Louis, MO, USA), photographed, and killed by freezing at −20 °C for ≥24 h.

[2] = as above; format: in vivo, Danio rerio; conditions: wild type (AB), zebrafish (Danio rerio), in vivo, other: exposure of embryos in E3 medium, evaluated at 120 hpf; for LC50: embryos treated at 6 hpf; for EC50: teratogenicity, cardiotoxicity, hepatotoxicity, treated at 6 hpf
Experimental: as §1, §2, §3

[3] = tested on: MDA-MB-231 xenografts in Tg(fli1:EGFP) zebrafish embryos; experiment: Zebrafish MDA-MB-231 xenograft model; format: in vivo; conditions: for reduction of tumor mass vs untreated control: 3 days post injection
Experimental: The human breast carcinoma MDA-MB 231 cell line was cultured in DMEM:Ham’s 12 (1:1) medium (Sigma-Aldrich, St. Louis, MO, USA) supplemented with 10% FBS (Sigma-Aldrich, St. Louis, MO, USA), 100 µg/mL streptomycin, and 100 U/mL penicillin (Sigma-Aldrich, St. Louis, MO, USA), and grown as a monolayer in humidified atmosphere of 95% air and 5% CO2 at 37 °C. Prior to microinjection, the cells were washed once with PBS and trypsinized (0.25% trypsin/0.53 mM EDTA) (Sigma-Aldrich, St. Louis, MO, USA) to obtain a single-cell suspension. After centrifugation at 1200 rpm for 5 min, the cells were resuspended in serum-free DMEM medium and labeled with 2 µM Cell Tracker TM Red CMTPX (Thermo Fisher Scientific) according to the manufacturer’s instructions.
The zebrafish xenografts with human MDA-MB-231 cells were established according to the previously described procedure with slight modification. A day before the microinjections, Tg(fli1:EGFP) embryos kept at 28 °C were manually dechorionated. At the 48 hpf stage, 5 nL of MDA-MB 231 cell suspension containing 150 labeled cells was microinjected into the yolk of anesthetized embryos by a pneumatic picopump (PV820, World Precision Instruments, Sarasota, FL, USA). The exact number of cells was confirmed by dispensing the injected volume onto a microscope slide and by visual counting. After injection, embryos were incubated, to recover, for at least for 60 min at 28 °C, dead embryos were removed, while alive embryos were transferred into 24-well plates containing 1 mL of E3 water and 10 embryos per well. The injected xenografts were treated with the three doses of 8b (3.13, 6.25, and 12.5 µM), and maintained at 31–32 °C by 120 hpf. DMSO (0.25%) was used as a negative control. The survival and development of the xenografted embryos was recorded every day until the end of experiment (3 days post injection = 3 dpi), at which point, anesthetized xenografts were processed by fluorescent microscopy. The tumor size, number of xenografts with disseminated tumor cells in the caudal region, and number of disseminated cells per embryo were determined. The tumor size was determined by the fluorescent images using ImageJ. The experiment was repeated two times using 10 embryos per concentration.

MDA-MB-231 cells [4] = experiment: Matrigel invasion assay; format: cell-based, human; conditions: 24 h; 5 μM 8b, 10 μM 9b
Experimental: (§4) To determine MDA-MB-231 cell migration and invasion cell capacities, Corning® Costar® Transwell® cell culture inserts with 8.0 μm pore polycarbonate filters (Sigma Aldrich, CLS3464) and Corning™ BioCoat™ Matrigel™ Invasion Chamber with Corning Matrigel Matrix™ cell culture inserts (Thermo fisher scientific, Waltham, MA, USA) respectively were used. Briefly, 6 × 10^4 cells in 200 μL were seeded in the upper chamber and the bottom chamber was filled with 800 μL of medium. After 24 h under indicated treatments, the remaining cells in the upper chamber were gently removed with a cotton swab, moistened with medium, and the inserts were carefully washed twice with 37 °C warmed PBS. Then, attached cells at the bottom side of the membrane were fixed by immersing in ice cold methanol for 2 min and stained with 0.1% crystal violet for 15 min at room temperature. Stained cells were photographed and quantified using NIH ImageJ software.

MDA-MB-231 cells [5] = experiment: Bicameral (transwell) migration assay; format: cell-based, human; conditions: 24 h; 5 μM 8b, 10 μM 9b
Experimental: as §4

MCF-7 cells = experiment: Wound healing assay; format: cell-based; conditions: Homo sapiens, MCF7, 24 h, read-out: inhibition of wound closure compared to control
Experimental: To determine MCF-7 cell migration properties, 1 × 10^5 cells were seeded in 24-well plates and cultured until confluent. Then, cell monolayers were scratched using a sterile 200 μL pipette tip, and cell cultures were allowed to grow for 24 h under the indicated treatments. At the end of incubation period, culture medium was removed and wells were washed twice with PBS, then, cells were fixed with ice-cold methanol and stained with 0.1% crystal violet. In addition, cell monolayers were fixed and stained just after scratching to represent zero time migration. Finally, cell migration into the scratch area was documented by inverted light microscopy and quantified using NIH ImageJ software.

SMILES	embryos with teratogenicity, cardio- or hepatotoxicity [1]	LC50 [2]	EC50 [2]	number of metastasis per embryo, fold lower than untreated ([3]; 3.13 µM, 3-day treatment)	reduction of number of embryos exhibiting metastases ([3]; 3.13 µM, 3-day treatment)	reduction of tumor mass vs untreated control ([3]; 3.13 µM)	dissemination of MDA-MB-231 cells ([3]; 12.5 µM)	reduction of tumor mass vs untreated control ([3]; 12.5 µM)	ED50 (effective drug concentration reducing tumor mass by 50% in relation to the control) ([3]; 3-day treatment)	toxic side effects in xenografts ([3]; 3.13, 6.25 and 12.5 µM, 3-day treatment)	anti-invasive property (% compared to control) (MDA-MB-231 cells [4])	anti-migratory property (% compared to control) (MDA-MB-231 cells [5])	inhibition at 10 µM (MCF-7 cells)
O=C(CCCCCCCN1CCN(C(c2ccccc2)c2ccccc2)CC1)NO [Compound 8b, 8-(4-(diphenylmethyl)-piperazin-1-yl)-N-hydroxyoctanamide]	none	> 100 µM	79.5 µM	up to 9.6 fold	50%	56.1 ± 5.2%	completely inhibited	almost complete reduction	2.67 µM	no toxic side effects were observed	59%	–	–
O=C(NO)c1ccc(CN2CCN(C(c3ccccc3)c3ccccc3)CC2)cc1 [Compound 9b, 4-(4-(diphenylmethyl)-piperazin-1-ylmethyl)-N-hydroxy-benzamide]	32%	> 100 µM	53.8 µM	–	–	–	–	–	–	–	did not reduce	did not reduce	63.9%
